{"source": "paper PMC9596378", "about": "“Discovery and molecular basis of subtype-selective cyclophilin inhibitors” (Nature Chemical Biology, 2022)", "key": {"[1]": {"molecular_target": "CypD (Homo sapiens, UniProt P30405)", "sequence (P30405 45-207)": "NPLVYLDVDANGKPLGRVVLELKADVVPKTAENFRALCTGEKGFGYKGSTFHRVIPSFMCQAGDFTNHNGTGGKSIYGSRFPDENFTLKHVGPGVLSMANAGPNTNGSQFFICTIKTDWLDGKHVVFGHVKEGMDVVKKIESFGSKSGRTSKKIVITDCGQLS", "assay": "Chymotrypsin coupled prolyl-isomerase assay", "settings": "for CypD prolyl-isomerase assay raw dose-response value: Fig. 3b source data, replicates"}, "[2]": {"molecular_target": "T1, CypB (Homo sapiens, UniProt P23284)", "T1 construct": "PPIB (UniProtKB Entry P23284: residues 34–216); His6 with TEV site (2BT vector leader) (N); made in house; host or cells: E. coli BL21(DE3)", "T1 sequence (P23284 34-216)": "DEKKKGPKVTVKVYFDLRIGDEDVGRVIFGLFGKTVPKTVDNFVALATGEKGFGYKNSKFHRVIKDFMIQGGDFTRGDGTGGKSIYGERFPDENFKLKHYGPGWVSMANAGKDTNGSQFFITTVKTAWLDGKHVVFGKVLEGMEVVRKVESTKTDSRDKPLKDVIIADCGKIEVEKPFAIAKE", "assay": "biochemical", "settings": "for CypB prolyl-isomerase assay raw dose-response value: Fig. 3b source data, replicates", "outline": "(§1)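 Chymotrypsin-coupled cis–trans isomerization of Suc-AAPF-AMC (5 µM) catalysed by 5 nM cyclophilin, run cold (2–3 °C) at pH 7.3 with 5 min compound preincubation.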"}, "[3]": {"molecular_target": "Cyp40 (Homo sapiens, UniProt Q08752)", "sequence (Q08752 1-183)": "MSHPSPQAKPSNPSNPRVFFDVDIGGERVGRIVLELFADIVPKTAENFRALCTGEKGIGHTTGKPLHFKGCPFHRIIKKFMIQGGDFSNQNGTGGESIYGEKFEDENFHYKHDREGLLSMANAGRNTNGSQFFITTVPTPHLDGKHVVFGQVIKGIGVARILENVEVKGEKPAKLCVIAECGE", "assay": "Chymotrypsin coupled prolyl-isomerase assay", "settings": "for Cyp40 prolyl-isomerase assay raw dose-response value: Fig. 3b source data, replicates", "outline": "as §1"}, "[4]": {"molecular_target": "T2, NKTR (Homo sapiens, UniProt P30414)", "T2 construct": "NKTR (UniProtKB Entry P30414: residues 7–179); host or cells: E. coli BL21(DE3)", "T2 sequence (P30414 7-179)": "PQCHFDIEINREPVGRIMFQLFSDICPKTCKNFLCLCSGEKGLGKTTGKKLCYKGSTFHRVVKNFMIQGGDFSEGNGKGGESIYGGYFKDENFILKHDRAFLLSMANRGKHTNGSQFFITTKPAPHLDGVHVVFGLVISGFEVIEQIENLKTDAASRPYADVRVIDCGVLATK", "assay": "Chymotrypsin coupled prolyl-isomerase assay", "type": "biochemical", "settings": "for NKTR prolyl-isomerase assay raw dose-response value: Fig. 3b source data, replicates"}, "[5]": {"molecular_target": "T3, PPIL1 (Homo sapiens, UniProt Q9Y3C6)", "T3 construct": "PPIL1 (UniProtKB Entry Q9Y3C6: residues 1–166); made in house; host or cells: E. coli BL21(DE3)", "T3 sequence (Q9Y3C6 1-166)": "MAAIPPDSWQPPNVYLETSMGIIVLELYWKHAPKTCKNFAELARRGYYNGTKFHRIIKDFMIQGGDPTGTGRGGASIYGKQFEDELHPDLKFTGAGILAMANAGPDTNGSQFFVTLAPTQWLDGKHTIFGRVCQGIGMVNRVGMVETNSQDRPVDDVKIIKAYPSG", "assay": "Chymotrypsin coupled prolyl-isomerase assay", "type": "biochemical", "settings": "for PPIL1 prolyl-isomerase assay raw dose-response value: Fig. 3b source data, replicates"}, "[6]": {"molecular_target": "T4, PPWD1 (Homo sapiens, UniProt Q96BP3)", "T4 construct": "PPWD1 (UniProtKB Entry Q96BP3: residues 473–646); host or cells: E. coli BL21(DE3)", "T4 sequence (Q96BP3 473-646)": "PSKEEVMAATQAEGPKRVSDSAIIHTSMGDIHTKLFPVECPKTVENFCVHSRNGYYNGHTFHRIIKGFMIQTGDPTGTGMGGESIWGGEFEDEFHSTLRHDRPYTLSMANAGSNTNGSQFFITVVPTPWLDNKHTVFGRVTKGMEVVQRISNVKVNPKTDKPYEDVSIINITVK", "assay": "Chymotrypsin coupled prolyl-isomerase assay", "type": "biochemical", "settings": "for PPWD1 prolyl-isomerase assay raw dose-response value: Fig. 3b source data, replicates", "description": "Five microliters of compound pre-dissolved in 5% DMSO/assay buffer was then added to appropriate wells and incubated at 2–3 °C for 5 min. Five microliters of 0.5 mM α-chymotrypsin from bovine pancreas (Type II, lyophilized powder, Millipore-Sigma) in 20% 1 mM HCl/Assay Buffer was then added to each well and incubated at 2–3 °C for 5 min. The plate was then quickly transferred to a FLIPR Tetra High-Throughput Cellular Screening System (Molecular Devices). Using the internal liquid handling system of the FLIPR, 1 µL 0.5 mM Suc-AAPF-AMC (Chymotrypsin Substrate II, Millipore-Sigma) dissolved in 0.55 M LiCl/2,2,2-trifluoroethanol was added to each well, which was then mixed for 5 s, followed by immediate fluorescence measurements every 1 s for 330 s using a 360–380 nm excitation LED module and a 400–460 nm emission filter. […] Raw fluorescence data was analyzed by non-linear regression analysis with Prism v.9 by fitting one-phase association curves to each well. Analyses were halted after the calculated maximum fluorescent value owing to observed fluorescent bleaching during the sustained fluorescent plateau. Rate constants calculated for each well (s^−1) were then normalized to substrate only (no prolyl-isomerase) and enzyme + substrate only controls."}}, "note": "“And” between values parts separate entries of the source, which are not always exact repeats. Equal values may be shown once. Read-outs that look alike come from different tables or passages of the source."}
{"smiles": "NCCOCCNC(=O)[C@@H]1CCNC(=O)/C=C/C(=O)N2CCC[C@](Cc3ccccc3)(C2)C(=O)N[C@@H](Cc2ccc(-c3ccc(CCC(=O)O)cc3)cc2)C(=O)NCc2ccccc2CC(=O)N1", "note": "[Compound B23]", "values": [{"measurement": "IC50", "setting": "[1]", "value": 7.8, "unit": "nM"}, {"measurement": "CypD prolyl-isomerase assay raw dose-response value", "setting": "[1]; Dose 0.000457247 µM", "value": "0.08239 and 0.08493 and 0.09684"}, {"measurement": "CypD prolyl-isomerase assay raw dose-response value", "setting": "[1]; Dose 0.00137174 µM", "value": "0.07973 and 0.07546 and 0.07833"}, {"measurement": "CypD prolyl-isomerase assay raw dose-response value", "setting": "[1]; Dose 0.00411523 µM", "value": "0.06213 and 0.06183 and 0.0629"}, {"measurement": "CypD prolyl-isomerase assay raw dose-response value", "setting": "[1]; Dose 0.0123457 µM", "value": "0.03857 and 0.03915 and 0.03469"}, {"measurement": "CypD prolyl-isomerase assay raw dose-response value", "setting": "[1]; Dose 0.037037 µM", "value": "0.02379 and 0.02491 and 0.0225"}, {"measurement": "CypD prolyl-isomerase assay raw dose-response value", "setting": "[1]; Dose 0.111111 µM", "value": "0.01572 and 0.01536 and 0.01393"}, {"measurement": "CypD prolyl-isomerase assay raw dose-response value", "setting": "[1]; Dose 0.333333 µM", "value": "0.01408 and 0.01283 and 0.01168"}, {"measurement": "CypD prolyl-isomerase assay raw dose-response value", "setting": "[1]; Dose 1 µM", "value": "0.01156 and 0.01128 and 0.01193"}, {"measurement": "selectivity for CypD over CypE and CypB", "setting": "[1]; prolyl-isomerase IC50", "value": "~ 3 fold"}, {"measurement": "IC50", "setting": "[2]; CypB (comparator for CypB E121S), read-out: Mutant Cyclophilin Prolyl Isomerase Inhibition IC50 Values, CypB", "value": 22, "unit": "nM"}, {"measurement": "CypB prolyl-isomerase assay raw dose-response value", "setting": "[2]; Dose 0.00457247 µM", "value": "0.0629 and 0.06607 and 0.09046"}, {"measurement": "CypB prolyl-isomerase assay raw dose-response value", "setting": "[2]; Dose 0.0137174 µM", "value": "0.04838 and 0.05763 and 0.06969"}, {"measurement": "CypB prolyl-isomerase assay raw dose-response value", "setting": "[2]; Dose 0.0411523 µM", "value": "0.04508 and 0.04072 and 0.05012"}, {"measurement": "CypB prolyl-isomerase assay raw dose-response value", "setting": "[2]; Dose 0.123457 µM", "value": "0.03305 and 0.03113 and 0.02819"}, {"measurement": "CypB prolyl-isomerase assay raw dose-response value", "setting": "[2]; Dose 0.37037 µM", "value": "0.02119 and 0.01977 and 0.01945"}, {"measurement": "CypB prolyl-isomerase assay raw dose-response value", "setting": "[2]; Dose 1.11111 µM", "value": "0.01691 and 0.01533 and 0.01651"}, {"measurement": "CypB prolyl-isomerase assay raw dose-response value", "setting": "[2]; Dose 3.33333 µM", "value": "0.01532 and 0.01471 and 0.0137"}, {"measurement": "CypB prolyl-isomerase assay raw dose-response value", "setting": "[2]; Dose 10 µM", "value": "0.01585 and 0.0132 and 0.01359"}, {"measurement": "IC50", "setting": "[2]; prolyl-isomerase inhibition, 5 nM cyclophilin, read-out: IC50 CypB", "value": "22 ± 4", "unit": "nM"}, {"measurement": "IC50", "setting": "[2]; prolyl-isomerase inhibition, read-out: IC50 CypB", "value": 22, "unit": "nM"}, {"measurement": "IC50", "setting": "[2]; wild-type CypB, read-out: Wild-Type Cyclophilin Prolyl Isomerase Inhibition IC50 Values, CypB", "value": 22, "unit": "nM"}, {"measurement": "Cyp40 prolyl-isomerase assay raw dose-response value", "setting": "[3]; Dose 0.0201875 µM", "value": "0.0705 and 0.08875 and 0.06706"}, {"measurement": "Cyp40 prolyl-isomerase assay raw dose-response value", "setting": "[3]; Dose 0.0605624 µM", "value": "0.06428 and 0.07232 and 0.08253"}, {"measurement": "Cyp40 prolyl-isomerase assay raw dose-response value", "setting": "[3]; Dose 0.181687 µM", "value": "0.08019 and 0.07121 and 0.08682"}, {"measurement": "Cyp40 prolyl-isomerase assay raw dose-response value", "setting": "[3]; Dose 0.545062 µM", "value": "0.05956 and 0.06358 and 0.0778"}, {"measurement": "Cyp40 prolyl-isomerase assay raw dose-response value", "setting": "[3]; Dose 1.63519 µM", "value": "0.04659 and 0.04863 and 0.05555"}, {"measurement": "Cyp40 prolyl-isomerase assay raw dose-response value", "setting": "[3]; Dose 4.90556 µM", "value": "0.02767 and 0.03026 and 0.03081"}, {"measurement": "Cyp40 prolyl-isomerase assay raw dose-response value", "setting": "[3]; Dose 14.7167 µM", "value": "0.0182 and 0.01915 and 0.02408"}, {"measurement": "Cyp40 prolyl-isomerase assay raw dose-response value", "setting": "[3]; Dose 44.15 µM", "value": "0.01601 and 0.01375 and 0.01814"}, {"measurement": "IC50", "setting": "[3]; Wild-Type Cyclophilin Prolyl Isomerase Inhibition IC50 Values, Cyp40, wild-type Cyp40", "value": 1700, "unit": "nM"}, {"measurement": "NKTR prolyl-isomerase assay raw dose-response value", "setting": "[4]; Dose 0.0201875 µM", "value": "0.03059 and 0.03481 and 0.04051"}, {"measurement": "NKTR prolyl-isomerase assay raw dose-response value", "setting": "[4]; Dose 0.0605624 µM", "value": "0.03143 and 0.03531 and 0.03914"}, {"measurement": "NKTR prolyl-isomerase assay raw dose-response value", "setting": "[4]; Dose 0.181687 µM", "value": "0.02923 and 0.03481 and 0.03355"}, {"measurement": "NKTR prolyl-isomerase assay raw dose-response value", "setting": "[4]; Dose 0.545062 µM", "value": "0.03762 and 0.03481 and 0.03206"}, {"measurement": "NKTR prolyl-isomerase assay raw dose-response value", "setting": "[4]; Dose 1.63519 µM", "value": "0.03593 and 0.02854 and 0.03455"}, {"measurement": "NKTR prolyl-isomerase assay raw dose-response value", "setting": "[4]; Dose 4.90556 µM", "value": "0.0369 and 0.03251 and 0.03563"}, {"measurement": "NKTR prolyl-isomerase assay raw dose-response value", "setting": "[4]; Dose 14.7167 µM", "value": "0.03118 and 0.02949 and 0.02947"}, {"measurement": "NKTR prolyl-isomerase assay raw dose-response value", "setting": "[4]; Dose 44.15 µM", "value": "0.02842 and 0.02625 and 0.02899"}, {"measurement": "IC50", "setting": "[4]; wild-type NKTR, read-out: Wild-Type Cyclophilin Prolyl Isomerase Inhibition IC50 Values, NKTR", "value": "> 100000", "unit": "nM"}, {"measurement": "PPIL1 prolyl-isomerase assay raw dose-response value", "setting": "[5]; Dose 0.0201875 µM", "value": "0.07231 and 0.05967 and 0.06308"}, {"measurement": "PPIL1 prolyl-isomerase assay raw dose-response value", "setting": "[5]; Dose 0.0605624 µM", "value": "0.05364 and 0.0572 and 0.05937"}, {"measurement": "PPIL1 prolyl-isomerase assay raw dose-response value", "setting": "[5]; Dose 0.181687 µM", "value": "0.04207 and 0.04374 and 0.05902"}, {"measurement": "PPIL1 prolyl-isomerase assay raw dose-response value", "setting": "[5]; Dose 0.545062 µM", "value": "0.02667 and 0.03161 and 0.02807"}, {"measurement": "PPIL1 prolyl-isomerase assay raw dose-response value", "setting": "[5]; Dose 1.63519 µM", "value": "0.01818 and 0.02247 and 0.01913"}, {"measurement": "PPIL1 prolyl-isomerase assay raw dose-response value", "setting": "[5]; Dose 4.90556 µM", "value": "0.01354 and 0.01399 and 0.01299"}, {"measurement": "PPIL1 prolyl-isomerase assay raw dose-response value", "setting": "[5]; Dose 14.7167 µM", "value": "0.01244 and 0.01258 and 0.01177"}, {"measurement": "PPIL1 prolyl-isomerase assay raw dose-response value", "setting": "[5]; Dose 44.15 µM", "value": "0.01521 and 0.01086 and 0.01169"}, {"measurement": "IC50", "setting": "[5]; wild-type PPIL1, read-out: Wild-Type Cyclophilin Prolyl Isomerase Inhibition IC50 Values, PPIL1", "value": 130, "unit": "nM"}, {"measurement": "PPWD1 prolyl-isomerase assay raw dose-response value", "setting": "[6]; Dose 0.0201875 µM", "value": "0.05033 and 0.05427 and 0.05661"}, {"measurement": "PPWD1 prolyl-isomerase assay raw dose-response value", "setting": "[6]; Dose 0.0605624 µM", "value": "0.05286 and 0.05252 and 0.05358"}, {"measurement": "PPWD1 prolyl-isomerase assay raw dose-response value", "setting": "[6]; Dose 0.181687 µM", "value": "0.05234 and 0.04225 and 0.05023"}, {"measurement": "PPWD1 prolyl-isomerase assay raw dose-response value", "setting": "[6]; Dose 0.545062 µM", "value": "0.05186 and 0.04473 and 0.04345"}, {"measurement": "PPWD1 prolyl-isomerase assay raw dose-response value", "setting": "[6]; Dose 1.63519 µM", "value": "0.04986 and 0.04682 and 0.05314"}, {"measurement": "PPWD1 prolyl-isomerase assay raw dose-response value", "setting": "[6]; Dose 4.90556 µM", "value": "0.03903 and 0.03772 and 0.04075"}, {"measurement": "PPWD1 prolyl-isomerase assay raw dose-response value", "setting": "[6]; Dose 14.7167 µM", "value": "0.03486 and 0.03306 and 0.03245"}, {"measurement": "PPWD1 prolyl-isomerase assay raw dose-response value", "setting": "[6]; Dose 44.15 µM", "value": "0.02892 and 0.02371 and 0.02381"}, {"measurement": "IC50", "setting": "[6]; wild-type PPWD1, read-out: Wild-Type Cyclophilin Prolyl Isomerase Inhibition IC50 Values, PPWD1", "value": 11000, "unit": "nM"}]}
